Data from patent publication US9315496B2, “Benzopyrone derivative and use thereof” (HUAZHONG UNIVERSITY OF SCIENCE & TECHNOLOGY, priority 2011, dated 2016).
Where two headings read alike, the source gives them in different places.

Experiments:
KM mice = assay: Apomorphine induced clambering assay of mice; format: in vivo; details: for ED50: Mus musculus, po, apomorphine 1 mg/kg sc
Method: Healthy KM mice (male, with body weight of 18-22 g) were provided by Qinglongshan Animal Cultivation Center, Nanjing.
Test positive drugs: haloperidol, clozapine, risperidone, olanzapine, aripiprazole, ziprasidone, quetiapine.
Apomorphine provided by Sigma Company was dissolved in 0.9% NaCl (containing 0.1% vitamin C) before use, and was freshly formulated before use.
Corresponding solvent double-distilled water was administered intragastrically to the negative control group and the model group, corresponding positive drugs were administered intragastrically to the positive drug groups (a small amount of acetic acid was first added and then double-distilled water was added when dissolving), and corresponding dosages of compounds were administered intragastrically to the compound groups for each dosage, with the volume for intragastric administration as 0.1 ml/10 g. 1 hour after the intragastric administration, apomorphine was subcutaneously injected (1 mg/kg), with the volume as 0.1 ml/10 g. After the injection of apomorphine, the mice were immediately put into the clambering cages. After 5 min of adaptation, the behaviors of the mice at 10-11, 20-21, and 30-31 min after the injection of apomorphine were observed and scored. Scoring criteria: 4 paws on the floor was scored as 0; 2 forepaws on the cage was scored as 1; and 4 paws on the cage was scored as 2.

in vivo = details: both, mouse, po
Method: KM mice (half male and half female) were randomly divided into several groups (with 2-5 mice in each group), which were respectively the 2000 mg/kg groups for each compound, and the solvent group. 0.2 ml/10 g were administered intragastrically. The death of the animals in 3 days were observed. (In the case 3 or more animals survived in 3 days without notable abnormity in their life states, the observation was continued until the assay was completed in 7 days. In the case 3 or more animals died in 3 days, the median lethal dose method was used to determine the LD50).
0.2 ml/10 g were administered intragastrically, and the death of the animals in 1-3 days were observed.

5-HT2A receptor = 5-HT2A receptor (Rattus norvegicus, UniProt P14842); assay: 5HT2A receptor binding assay ([3H]-Ketanserin, rat brain striatum membrane); details: for IC50: cells marked ^a; for IC50 / inhibition at 10 µM: [3H]-Ketanserin, rat brain striatum membrane; for inhibition at 10 µM: test compound final concentration 10^−5 M, read-out: 5HT2A inhibition %
mice of Kunming breed = assay: MK-801 induced high activity in mice; format: in vivo; details: for ED50: Mus musculus, 1.5 h, po, MK-801 0.1 mg/kg ip, spontaneous activity in 90 min
Method: Healthy mice of Kunming breed (with half male and half female, (20±2)g) were provided by Qinglongshan Animal Cultivation Center, Nanjing.
Subsequently, the spontaneous activities of the mice of each group in 90 min were measured.

D3 receptor = target: T1, D3 receptor (Homo sapiens, UniProt P35462); assay: D3 receptor assay ([3H]-Spiperone, HEK-293 cells); format: binding; details: for inhibition at 10 µM: final concentration 10 μmol/L, [3H]-Spiperone, HEK-293 cells; for affinity for D3 receptor (in words): in vitro receptor binding assay
T1 construct: expressed in transfected cells; host or cells: HEK-293
Method: After the cells were centrifuged at 1000 rpm for 5 min, the supernatant was discarded, and the cell pellet was collected and stored in a −20° C. fridge for reservation. It was re-suspended with Tris-Cl (pH 7.4) in the assay.
Tris was divided into aliquots by Genetimes Technology Inc.
Competitive binding test for receptors: 20 μl of each of the test compounds and 20 μl of the radioactive ligand together with 160 μl of the receptor proteins were added into the reaction tubes, and the final concentrations of the test compound and the positive drug were all 10 μmol/L. After 50 min of incubation in 30° C. water bath, the tubes were immediately moved to ice bath to terminate the reactions. GF/C glass fiber filter papers were used for rapid sucking filtration on a Millipore cell sample collector, elution buffer (50 mM Tris-HCl, PH 7.4) was applied for 3 ml×3 times, and microwave was applied for 4-5 min for drying. The filter papers were moved into 0.5 ml centrifuge tubes, and 500 μl of lipid-soluble scintillation solution was added. The tubes were allowed to stand still for over 30 min in dark, and the intensities of radioactivity were measured by a counter.

5-HT2C receptor = 5-HT2C receptor (Rattus norvegicus, UniProt P08909); assay: 5HT2C receptor binding assay ([3H]-mesulergine, rat brain striatum membrane); details: for inhibition at 10 µM: read-out: 5HT2C inhibition %
Catalepsy assay = format: in vivo; details: both sexes, Kunming (KM), mouse, in vivo; mice, po
Method: Healthy mice of Kunming breed (with half male and half female, (22±2)g) were provided by Qinglongshan Animal Cultivation Center, Nanjing.
Instruments: self-made bar-grabbing apparatus: stainless steel bar in mice box, which was 0.3 cm in diameter and […].
Corresponding solvent double-distilled water was administered intragastrically to the negative control group and the model group, corresponding positive drugs were administered intragastrically to the positive drug groups (a small amount of acetic acid was first added and then double-distilled water was added when dissolving), and corresponding dosages of compounds were administered intragastrically to the compound groups for each dosage, with the volume for intragastric administration as 0.1 ml/10 g. At 30 min, 60 min, 90 min after the intragastric administration, the two forepaws of the mice were gently placed on the bars (which were 20 cm in length, 0.3 cm in diameter, and 5.5 cm above the bench), and the hindpaws of the animals were placed on the bottom of the box. The durations for the mice to maintain the posture with the two forepaws on the bars were recorded, and 30 s of spasticity without moving was considered as the positive response. In the case the forepaws of the mice were not put down persistently, the observation was terminated at 60 s. The numbers of animals with positive response in each of the compound dosage groups were counted.

dopamine D2 receptor = dopamine D2 receptor (Rattus norvegicus, UniProt P61169); assay: D2 receptor binding assay (3H-Spiperone, rat brain striatum membrane); details: for affinity for D2 receptor (in words): in vitro receptor binding assay; for inhibition at 10 µM: read-out: D2 inhibition %
Method: Rats were sacrificed by cervical dislocation on ice. Brain striatum was rapidly taken, and 2 brain striatums were combined into a centrifuge tube, to which 3 ml of buffer (0.05 M Tris-HCl buffer, containing NaCl 120 mM, KCl 5 mM, MgCl2 1 mM, CaCl2 1 mM) was added, homogenization was conducted for 3-4 s at level 4 for four times, and then 5 ml of buffer was then added. The weight of the homogenized tubes were adjusted using a balance, and centrifugation was conducted at 12000 r, 4° C. for 20 min. The supernatant was discarded, and 3 ml of buffer was added (0.05 M Tris-HCl buffer, containing NaCl 120 mM, KCl 5 mM, MgCl2 1 mM, CaCl2 1 mM). Vortex mixer was used for blending, and then 5 ml of buffer was added (0.05 M Tris-HCl buffer, containing NaCl 120 mM, KCl 5 mM, MgCl2 1 mM, CaCl2 1 mM). Centrifugation was conducted (repeated 3 times). After the centrifugations, the supernatant was discarded, and the pellets were stored at −80° C. for future use.
Beckman LS-6500 Multi-function Liquid Scintillation Counter was used.
(1) The prepared membrane was first applied with appropriate amount of homogenized liquid, and homogenizer was used for evenly dispersing. 15 tubes were mixed into a 100 ml container, and appropriate amount of homogenized liquid was added to give 50 ml of membrane suspension, which was reserved for future use.
(2) 100 μL of membrane preparation and 100 μL of buffer were added into each reaction tube.
(3) 100 μL of homogenized liquid was added into the total binding tube (TB), 100 μL of Butaclamol (final concentration 10^−5 M) was added into the non-specific binding tube (NB), and 100 μL of the test compound (final concentration 10^−5 M) was added into the specific binding tube (SB) for each compound.
(5) Each of the reaction tubes was incubated at 37° C. for 20 min. After the reaction was completed, the bound ligands were rapidly filtered under reduced pressure, and the ice-chilled assay buffer was used for adequate washing. The filter was taken out and put into a 3 ml scintillation vial, and 2 ml of toluene scintillation solution was added and blended.
(6) The scintillation vials were put into Liquid Scintillation Counter for counting. Inhibitory rate(1%)=(Total binding tube cpm−compound cpm)/(Total binding tube cpm−non-specific binding tube cpm)×100%
Each assay for the compounds was conducted in duplicate.

5-HT1A receptor = target: T2, 5-HT1A receptor (Rattus norvegicus, UniProt P19327); assay: 5HT1A receptor binding assay (3H-8-OH-DPAT, rat brain striatum membrane); details: for IC50: cells marked ^a; for IC50 / inhibition at 10 µM: 3H-8-OH-DPAT, rat brain striatum membrane; for affinity for 5-HT1A receptor (in words): in vitro receptor binding assay; for inhibition at 10 µM: test compound final concentration 10^−5 M
T2 sequence (P19327 1-422): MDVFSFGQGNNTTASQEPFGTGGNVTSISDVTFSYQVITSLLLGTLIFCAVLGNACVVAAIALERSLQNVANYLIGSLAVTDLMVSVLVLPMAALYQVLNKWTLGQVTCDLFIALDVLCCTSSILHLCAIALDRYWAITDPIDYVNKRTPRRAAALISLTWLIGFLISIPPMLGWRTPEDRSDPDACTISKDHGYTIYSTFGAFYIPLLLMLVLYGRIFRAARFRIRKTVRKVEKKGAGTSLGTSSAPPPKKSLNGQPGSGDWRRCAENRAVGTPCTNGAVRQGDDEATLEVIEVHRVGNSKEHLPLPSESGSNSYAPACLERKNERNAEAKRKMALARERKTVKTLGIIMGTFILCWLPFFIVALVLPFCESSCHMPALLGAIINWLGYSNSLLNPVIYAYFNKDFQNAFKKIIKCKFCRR
Method: Incubation at 37° C. was conducted for 10 min, the weight of the tubes were adjusted using a balance after incubation. […] Centrifugation was conducted and repeated 3 times.

[1] = in vitro receptor binding assay
[2] = test compound final concentration 10^−5 M, [3H]-mesulergine, rat brain striatum membrane

5-HT2A receptor, sequence (P14842 whole entry): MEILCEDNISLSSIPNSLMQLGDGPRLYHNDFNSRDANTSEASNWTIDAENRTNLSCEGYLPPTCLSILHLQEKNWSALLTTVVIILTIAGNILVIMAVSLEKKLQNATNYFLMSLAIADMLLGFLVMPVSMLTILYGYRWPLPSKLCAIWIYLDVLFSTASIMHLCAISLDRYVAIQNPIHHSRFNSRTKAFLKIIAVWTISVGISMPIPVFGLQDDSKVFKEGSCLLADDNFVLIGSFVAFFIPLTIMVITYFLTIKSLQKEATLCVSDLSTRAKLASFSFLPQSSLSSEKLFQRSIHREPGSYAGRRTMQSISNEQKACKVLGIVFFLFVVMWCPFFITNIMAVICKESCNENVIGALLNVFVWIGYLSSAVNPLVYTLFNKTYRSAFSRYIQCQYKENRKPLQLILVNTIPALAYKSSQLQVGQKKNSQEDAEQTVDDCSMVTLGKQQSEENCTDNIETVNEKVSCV
dopamine D2 receptor, sequence (P61169 whole entry): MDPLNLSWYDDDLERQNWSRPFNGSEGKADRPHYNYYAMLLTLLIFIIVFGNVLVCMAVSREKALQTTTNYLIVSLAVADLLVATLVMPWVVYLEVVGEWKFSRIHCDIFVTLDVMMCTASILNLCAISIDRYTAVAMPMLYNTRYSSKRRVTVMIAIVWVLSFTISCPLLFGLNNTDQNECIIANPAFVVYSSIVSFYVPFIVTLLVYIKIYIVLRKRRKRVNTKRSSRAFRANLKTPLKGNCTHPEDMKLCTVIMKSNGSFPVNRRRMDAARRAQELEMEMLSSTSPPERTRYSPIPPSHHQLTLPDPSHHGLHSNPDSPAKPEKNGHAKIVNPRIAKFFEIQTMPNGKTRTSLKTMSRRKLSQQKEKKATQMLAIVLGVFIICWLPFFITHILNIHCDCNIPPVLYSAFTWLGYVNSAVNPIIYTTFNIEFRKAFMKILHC
5-HT2C receptor, sequence (P08909 33-460): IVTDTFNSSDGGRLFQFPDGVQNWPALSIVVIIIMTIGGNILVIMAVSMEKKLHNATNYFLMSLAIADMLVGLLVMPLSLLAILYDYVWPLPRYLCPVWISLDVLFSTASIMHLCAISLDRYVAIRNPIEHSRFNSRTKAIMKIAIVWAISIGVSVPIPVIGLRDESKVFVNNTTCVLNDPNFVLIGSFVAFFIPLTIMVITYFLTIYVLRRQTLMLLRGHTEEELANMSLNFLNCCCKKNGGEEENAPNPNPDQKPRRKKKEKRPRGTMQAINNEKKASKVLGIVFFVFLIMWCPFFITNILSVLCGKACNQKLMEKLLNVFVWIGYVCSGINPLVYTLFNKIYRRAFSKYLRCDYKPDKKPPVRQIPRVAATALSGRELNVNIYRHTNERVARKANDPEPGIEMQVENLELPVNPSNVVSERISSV
T1 sequence (P35462 whole entry): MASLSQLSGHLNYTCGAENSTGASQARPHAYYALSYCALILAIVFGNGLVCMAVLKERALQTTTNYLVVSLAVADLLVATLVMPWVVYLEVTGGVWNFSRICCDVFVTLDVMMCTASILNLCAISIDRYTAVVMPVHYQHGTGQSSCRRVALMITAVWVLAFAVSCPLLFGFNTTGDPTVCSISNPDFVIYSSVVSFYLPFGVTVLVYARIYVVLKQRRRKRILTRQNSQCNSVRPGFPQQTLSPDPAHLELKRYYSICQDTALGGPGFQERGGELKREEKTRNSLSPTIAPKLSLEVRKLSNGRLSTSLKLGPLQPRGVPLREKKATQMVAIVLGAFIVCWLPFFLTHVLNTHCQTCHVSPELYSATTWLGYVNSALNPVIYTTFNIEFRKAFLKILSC

| Structure (SMILES) | ED50 (KM mice) [mg/kg] | LD50 (in vivo) [mg/kg] | IC50 (5-HT2A receptor) [nM] | inhibition at 10 µM (D3 receptor) [%] | affinity for D3 receptor (in words) (D3 receptor) | affinity for D2 receptor (in words) (dopamine D2 receptor) | inhibition at 10 µM (dopamine D2 receptor) [%] | IC50 (5-HT1A receptor) [nM] | affinity for 5-HT1A receptor (in words) (5-HT1A receptor) | affinity for 5-HT2A receptor (in words) (5-HT2A receptor) | affinity for 5-HT2C receptor (in words) (5-HT2C receptor) | inhibition at 10 µM (5-HT2C receptor; [2]) [%] | melting point [°C] | inhibition at 10 µM (5-HT2A receptor) [%] | inhibition at 10 µM (5-HT1A receptor) [%] | other results |
| --- | --- | --- | --- | --- | --- | --- | --- | --- | --- | --- | --- | --- | --- | --- | --- | --- |
| O=c1ccc2ccc(OCCCCN3CCC(c4noc5cc(F)ccc45)CC3)cc2o1 [Compound 1, 7-(4-(4-(3-(6-fluoro-benzisoxazole)-1-piperidyl)-n-butoxy))-2H-benzopyran-2-one] | 0.32 | > 2000 | 1.53 | 97.6 | relatively stronger affinities | relatively stronger affinities | 128 | 9.61 | relatively stronger affinities |  |  |  |  |  |  | affinity for 5-HT2A receptor (in words) (5-HT2A receptor; [1]): relatively stronger affinities; ED50 (mice of Kunming breed): 0.61 mg/kg; affinity for 5-HT2C receptor (in words) (5-HT2C receptor; [1]): lower affinities; inhibition at 10 µM (5-HT2C receptor): 88%; ED50 (Catalepsy assay): 1.41 mg/kg |
| Cc1cc(=O)oc2cc(OCCCCN3CCC(c4noc5cc(F)ccc45)CC3)ccc12 [Compound 6, 7-(4-(4-(3-(6-fluoro-benzisoxazole)-1-piperidyl)-n-butoxy))-4-methyl-2H-benzopyran-2-one] | 0.11 | > 2000 | 0.39 | 100 | relatively stronger affinities | relatively stronger affinities | 101 | 3.52 | relatively stronger affinities |  |  |  |  |  |  | affinity for 5-HT2A receptor (in words) (5-HT2A receptor; [1]): relatively stronger affinities; ED50 (mice of Kunming breed): 0.32 mg/kg; affinity for 5-HT2C receptor (in words) (5-HT2C receptor; [1]): lower affinities; inhibition at 10 µM (5-HT2C receptor): 91.4%; ED50 (Catalepsy assay): 0.68 mg/kg |
| O=c1cc(-c2ccccc2)c2ccc(OCCCN3CCN(c4nsc5ccccc45)CC3)cc2o1 [Compound 12, 7-(3-(4-(3-(1,2-benzisothiazole)-1-piperazinyl)-n-propoxy))-4-phenyl-2H-benzopyran-2-one] |  |  | 9.26 | 103 | relatively stronger affinities | relatively stronger affinities | 124 | 127 | relatively stronger affinities | relatively stronger affinities | lower affinities | 93.4 |  |  |  |  |
| O=c1cc(C(F)(F)F)c2ccc(OCCCCN3CCN(c4nsc5ccccc45)CC3)cc2o1 [Compound 18, 7-(4-(4-(3-(1,2-benzisothiazole)-1-piperazinyl)-n-butoxy))-4-(trifluoromethyl)-2H-benzopyran-2-one] |  |  | 0.79 | 103 | relatively stronger affinities | relatively stronger affinities | 113 | 6.19 | relatively stronger affinities | relatively stronger affinities | lower affinities | 77.6 | 93 to 95 |  |  |  |
| Cc1cc(=O)oc2c(Cl)c(OCCCN3CCN(c4nsc5ccccc45)CC3)ccc12 [Compound 22, 7-(3-(4-(3-(1,2-benzisothiazole)-1-piperazinyl)-n-propoxy))-4-methyl-8-chloro-2H-benzopyran-2-one] |  |  | 6.88 | 104 | relatively stronger affinities | relatively stronger affinities | 112 | 12.8 | relatively stronger affinities | relatively stronger affinities | lower affinities | 99.8 | 162 to 164 |  |  |  |
| O=c1cc(CO)c2ccc(OCCCCN3CCC(c4noc5cc(F)ccc45)CC3)cc2o1 [Compound 31, 7-(4-(4-(3-(6-fluoro-benzisoxazole)-1-piperidyl)-n-butoxy))-4-hydroxymethyl-2H-benzopyran-2-one] |  |  |  |  |  |  | 2.4 |  |  |  |  |  | 160 to 162 | 1.8 | 63.9 |  |
| Cc1cc(=O)oc2cc(OCC(O)CN3CCC(c4noc5cc(F)ccc45)CC3)ccc12 (centres unmarked) [Compound 32, 7-(3-(4-(3-(6-fluoro-benzisoxazole)-1-piperidyl)-2-hydroxylpropoxy))-4-methyl-2H-benzopyran-2-one] |  |  |  |  |  |  | 62.6 |  |  |  |  |  | 183 to 185 | 157 | 103 |  |
| O=c1cc(-c2ccccc2)c2ccc(OCC(O)CN3CCC(c4noc5cc(F)ccc45)CC3)cc2o1 (centres unmarked) [Compound 33, 7-(3-(4-(3-(6-fluoro-benzisoxazole)-1-piperidyl)-2-hydroxylpropoxy))-4-phenyl-2H-benzopyran-2-one] |  |  |  |  |  |  | 110 |  |  |  |  |  | 193 to 195 | 129 | 23.5 |  |
| Cc1cc2c(s1)Nc1ccccc1N=C2N1CCN(C)CC1 [olanzapine, reference compound] | 0.11 |  |  |  |  |  |  |  |  |  |  |  |  |  |  |  |
| Cc1nc2n(c(=O)c1CCN1CCC(c3noc4cc(F)ccc34)CC1)CCCC2 [risperidone, reference compound] | 0.015 | 82.1 |  |  |  |  |  |  |  |  |  |  |  |  |  | improvement of apomorphine induced clambering symptoms (in words) (KM mice): effectively improve; improvement of MK-801 induced high activity (in words) (mice of Kunming breed; compared to the model group): significantly improve |
